Experimental data reported in patent US20230192661A1, “1, 4, 5, 6-TETRAHYDROPYRIMIDINE-2-AMINE DERIVATIVE” (UBE Corporation, priority 2020, published 2023).
pIC50: −log10 of the molar value.

Experiments:
[1] = system: TGF-β activation (phosphorylated SMAD3); test: TGF-β activation inhibition test (inhibition of SMAD3 phosphorylation in TFK-1 cells); assay type: cell-based; conditions: 48 h, fibronectin-coated plate, cultured 2 days, read-out: IC50 (rate of inhibition of phosphorylated SMAD3)
How it was run: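 TFK-1 cells on fibronectin-coated wells cultured 2 days at 37° C. with compound in RPMI 1640 with 1% FBS. Phospho-SMAD3 (Ser423/425) measured by cellular kit as DeltaF; inhibition scaled between DMSO (0%) and 10 μM LY364947 (100%), and IC50 calculated.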

[2] = Transcellular transport test using Caco2 cell; assay type: in vitro ADME; conditions: human, Caco-2; Caco2 monolayer, A-to-B, 10 μM compound, pH 7.4, 90 minutes
How it was run: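 Caco2 monolayers grown 20 to 22 days on 0.4 μm polycarbonate inserts; 10 μM compound (0.1% DMSO) added apically in HBSS/20 mM HEPES pH 7.4, 90 min at 37° C. Basolateral compound quantified by LC-MS/MS; A-to-B Papp computed from transport slope, membrane area and UV-HPLC-measured donor concentration.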

SMILES	pIC50 [1]	Papp A→B at 90 min, 10 μM [2]
O=C(O)C[C@H](NC(=O)CNC(=O)c1cc(NC2=NCC(F)CN2)c2c(F)n[nH]c2c1)c1cc(Cl)cc(C(F)(F)F)c1 (stereo partly drawn) [Example 48-(b), (3S)-3-(3-chloro-5-(trifluoromethyl)phenyl)-3-(2-(3-fluoro-4-((5-fluoro-1,4,5,6-tetrahydropyrimidin-2-yl)amino)-1H-indazole-6-carboxamido)acetamido) propanoic acid]	> 8.00	> 1 ×10⁻⁶ cm/s
O=C(O)C[C@H](NC(=O)CNC(=O)c1cc(NC2=NCC(F)CN2)c2c(Cl)n[nH]c2c1)c1cc(Cl)cc(C(F)(F)F)c1 (stereo partly drawn) [Example 49-(b), (3S)-3-(2-(3-chloro-4-((5-fluoro-1,4,5,6-tetrahydropyrimidin-2-yl)amino)-1H-indazole-6-carboxamido)acetamido)-3-(3-chloro-5-(trifluoromethyl)phenyl)propanoic acid]	> 8.00	0.5 to 1 ×10⁻⁶ cm/s
O=C(O)C[C@H](NC(=O)CNC(=O)c1cc(NC2=NCC(O)CN2)c2cn[nH]c2c1)c1cc(Cl)cc(C(F)(F)F)c1 (stereo partly drawn) [Example 50-(b), (3S)-3-(3-chloro-5-(trifluoromethyl)phenyl)-3-(2-(4-((5-hydroxy-1,4,5,6-tetrahydropyrimidin-2-yl)amino)-1H-indazole-6-carboxamido)acetamido)propanoic acid]	≤ 7.00	> 1 ×10⁻⁶ cm/s
O=C(O)C[C@H](NC(=O)CNC(=O)c1cc(NC2=NCCCN2)c2cn[nH]c2c1)c1cc(Cl)cc(C(F)(F)F)c1 [Example 51-(b), (S)-3-(3-chloro-5-(trifluoromethyl)phenyl)-3-(2-(4-((1,4,5,6-tetrahydropyrimidin-2-yl)amino)-1H-indazole-6-carboxamido)acetamido)propanoic acid]	7.00 to 7.30	> 1 ×10⁻⁶ cm/s
O=C(O)C[C@H](NC(=O)CNC(=O)c1cc(NC2=NCC(F)CN2)cc2[nH]ncc12)c1cc(Cl)cc(C(F)(F)F)c1 (stereo partly drawn) [Example 52-(b), (3S)-3-(3-chloro-5-(trifluoromethyl)phenyl)-3-(2-(6-((5-fluoro-1,4,5,6-tetrahydropyrimidin-2-yl)amino)-1H-indazole-4-carboxamido)acetamido)propanoic acid]	> 8.00	0.1 to 0.5 ×10⁻⁶ cm/s
O=C(O)C[C@H](NC(=O)CNC(=O)c1cc(NC2=NCC(F)CN2)cc2[nH]ncc12)c1cc(Br)cc(C(F)(F)F)c1 (stereo partly drawn) [Example 53-(b), (3S)-3-(3-bromo-5-(trifluoromethyl)phenyl)-3-(2-(6-((5-fluoro-1,4,5,6-tetrahydropyrimidin-2-yl)amino)-1H-indazole-4-carboxamido)acetamido)propanoic acid]	> 8.00	0.1 to 0.5 ×10⁻⁶ cm/s
O=C(O)C[C@H](NC(=O)CNC(=O)c1cc(NC2=NCC(F)CN2)cc2[nH]ncc12)c1cc(I)cc(C(F)(F)F)c1 (stereo partly drawn) [Example 54-(b), (3S)-3-(2-(6-((5-fluoro-1,4,5,6-tetrahydropyrimidin-2-yl)amino)-1H-indazole-4-carboxamido)acetamido)-3-(3-iodo-5-(trifluoromethyl)phenyl)propanoic acid]	> 8.00	0.1 to 0.5 ×10⁻⁶ cm/s
O=C(O)C[C@H](NC(=O)CNC(=O)c1cc(NC2=NCC(F)CN2)cc2[nH]ncc12)c1ccc(F)c(C(F)(F)F)c1 (stereo partly drawn) [Example 55-(b), (3S)-3-(2-(6-((5-fluoro-1,4,5,6-tetrahydropyrimidin-2-yl)amino)-1H-indazole-4-carboxamido)acetamido)-3-(4-fluoro-3-(trifluoromethyl)phenyl)propanoic acid]	> 8.00	0.1 to 0.5 ×10⁻⁶ cm/s
O=C(O)C[C@H](NC(=O)CNC(=O)c1cc(NC2=NCC(F)CN2)cc2[nH]ncc12)c1cccc(C(F)(F)F)c1 (stereo partly drawn) [Example 56-(b), (3S)-3-(2-(6-((5-fluoro-1,4,5,6-tetrahydropyrimidin-2-yl)amino)-1H-indazole-4-carboxamido)acetamido)-3-(3-(trifluoromethyl)phenyl)propanoic acid]	> 8.00	0.1 to 0.5 ×10⁻⁶ cm/s
